Test results: patent US20030171333A1, “Pharmaceutical composition containing at least a polymer combined with or conjugated to at least a phenylalkylcarboxylic acid salt, conjugate polymers and uses thereof” (priority 2000, published 2003)

Columns and labels:
HUVEC cells = assay: HUVEC cell proliferation (MTT), antiangiogenic activity in vitro; assay type: cell-based; conditions: tested alone at concentrations equivalent to LS17-NaPAC, 72 hours
Protocol: Immortalized healthy endothelial cells (HUVEC) were seeded in a proportion of 10000 cells per well and per 100 μl of DMEM medium supplemented with 2% of FCS, in 96-well microplates (COSTAR®). The number of cells was determined after having prepared a standard range.
After culturing for 24 hours, the HUVEC cells were incubated with the various concentrations of the products to be tested prepared in DMEM medium containing 2% of FCS. The absorbance at the time the products were added was measured and compared to the standard range, so as to determine the number of cells.
After culturing for 72 hours, the cell supernatant is removed and 1 wash with PBS buffer containing calcium and magnesium is carried out. 100 μl of a solution of MTT is then added and the cells are incubated for 4 hours. After 4 hours of incubation, the MTT is removed and the crystals which have formed are dissolved with DMSO for 10 minutes with agitation. Absorbance is measured at 570 nm.
The concentration of 10 μg/ml of LS17-NaPAC tested is compared to a concentration of NaPA alone of 1.3216 μg/ml or to a concentration of 8.7 μg/ml of LS17-DMCB alone.

MCF-7 cells [1] = assay: Cell growth assay, cell counting on Coulter Counter ZM; assay type: cell-based, human
Protocol: The MCF-7 tumor line is a line of estrogen-sensitive epithelial cells originating from pleural metastases of an infiltrating ductule breast adenocarcinoma. They are cultured in Dulbecco's Modified Eagle Medium (DMEM), supplemented with 10% of fetal calf serum (FCS), 1% of glutamine and 1% of sodium pyruvate. The cells are stored in cryotubes in frozen form in liquid nitrogen. The cryotubes are partially thawed in a water bath at 37° C. 2 ml of complete culture medium are added and the cell suspension is then mixed. Culture flasks (COSTAR® T25) are prepared with culture medium beforehand. The cell suspension is added to the flasks and placed in an incubator at 37° C. with 5% of CO2.
Cells sampled in the exponential growth phase are seeded in 24-well plates in a proportion of 15000 cells per ml and per well, this being in a DMEM medium supplemented with 10% FCS, 1% of sodium pyruvate and 1% of glutamine.
After incubation for 24 hours, the various concentrations of products to be tested are added in the proportion of 4 wells per concentration. These products are diluted in a DMEM medium containing 2% of FCS, 1% of sodium pyruvate and 1% of glutamine, so as to obtain the desired concentrations. The negative control is prepared without the addition of product.
After incubation for 72 hours, the cells are detached and then counted using a Coulter Counter ZM® set on the parameters predefined for MCF-7 cells. The diameter (threshold) of detection is 5 for an attenuation of 32. The latter determines the number of particles of desired diameter contained in the sample. By taking into account the dilution made, the number of cells per ml of initial cell suspension is determined from this value.
%I=[1−(net increase in treated cells/net increase in untreated cells)]×100
The net increase in untreated cells corresponds to the number of cells contained in the control wells (DMEM medium containing 2% FCS) subtracted with the number of cells at D0 (number of cells at the time the products are added to the wells). […]

MCF-7ras cells [2] = assay: Cell cycle analysis (BrdU/propidium iodide, FACScan); assay type: cell-based, human; conditions: NaPA alone 10 mM, 48 hours
Protocol: To analyze the cell cycle, the cells were seeded in plates in a proportion of […] and per well in DMEM medium supplemented with 2% of FCS. After culturing for 24 hours, the various tested products were added.
After 72 hours, the MCF-7ras cells were incubated in the presence of BrdU for 4 hours. The cells were then washed with PBS buffer and fixed with 70% ethanol. […] The cells were then centrifuged and resuspended in a staining solution containing […] of propidium iodide (Boehringer Mannheim) for 10 min. The stained cells are then analyzed with a FACScan (Coulter).
Analysis of the distribution of MCF-7ras cells treated with NaPA alone (10 mM), the dextran LS4 DMCB alone (18.5 mM) and a combination thereof (NaPA: 10 mM; LS4 DMCB: 18.5 mM) in the various phases of the cell cycle was carried out after 48 hours of treatment.

MCF-7 cells [3] = assay: MTT growth assay; assay type: cell-based, human
Protocol: MTT (3-(4,5-dimethylthiazol-2-yl)-2,5-diphenyl-tetrazolium bromide) has the property that it can be reduced in alkaline medium, thus giving a colored compound, blue formazan. Mitochondria, by virtue of their membrane-bound dehydrogenases, are capable of carrying out this reduction. As a result, the number of functional mitochondria, and indirectly the number of live cells, can be quantified as a function of the intensity of the coloration.
(§1) Cells sampled in the exponential growth phase are seeded in 96-well plates in a proportion of 5 000 cells per 200 μl, this being in a DMEM medium supplemented with 2% of FCS, 1% of glutamine and 1% of sodium pyruvate. After incubation for 24 hours, the various concentrations of products to be tested are added in a proportion of 3 wells per concentration. A negative control is prepared without the addition of product.
(§2) After incubation for 72 hours, the cells are washed twice with a buffered saline solution and then 100 μl of MTT are added to each well. After 4 hours of incubation, 100 μl of DMSO are added to the wells before reading the plate 570 nm using a plate reader.
The percentage inhibition I is determined using the equation previously described. The net increase in untreated cells this time corresponds to the cell density contained in the control wells minus that of D0. […]

MCF-7ras tumors = assay: Antitumor effect in vivo, tumors induced by inoculation of MCF-7ras cells in athymic mice; conditions: NaPA 40 mg/kg, injected twice a week, after 7 weeks of treatment; P=0.049
Protocol: Fifty 3-week-old female athymic mice from the Laboratoire Harlan (Gannat, France) were kept in a temperature-controlled room and subjected to a cycle of light/dark alternating every 12 hours.
Cells of the MCF-7ras tumor line as described above in example 17 were cultured in a DMEM medium supplemented with 10% of FCS until 80% confluency was reached. After centrifugation, the cells were resuspended in DMEM supplemented with 10% of FCS.
Each mouse was then inoculated subcutaneously with these cells, in the proximity of the mammary gland, in a proportion of 5×10^6 cells per animal.
The volume of the tumors (V) was calculated in the following way:
V=(4/3)π(r1)^2)r2); r1 representing the smallest radius of the tumor and r2 the largest radius of the tumor.
Four weeks after inoculation, solutions of NaPA (40 mg/kg) or of dextran LS4 DMCB (150 mg/kg) or of a combination of NaPA (40 mg/kg) and dextran LS4 DMCB (150 mg/kg), prepared in 0.1 ml of sodium chloride, were injected into the mice, twice a week, for 7 weeks for the solutions of NaPA alone and of dextran LS4 DMCB alone. The injections of the combination of NaPA and dextran LS4 DMCB were stopped after six weeks.
For each solution tested, 10 mice chosen randomly from the 50 mice initially inoculated were subjected to the treatment. […]
The volume of each tumor was measured once a week. […]

MCF-7ras cells [4] = assay: MTT growth assay with isobolic combination index; assay type: cell-based, human; conditions: for NaPA Bc / NaPA Be: used alone
Protocol: as §1, §2
The percentage inhibition I is determined using the equation previously described. The net increase in untreated cells this time corresponds to the cell density contained in the control wells minus that of D0. As regards the net increase in treated cells, it corresponds to the treated cell density at D72 subtracted with that of D0.
MCF-7 cells transfected with the Ha-ras oncogene (MCF-7ras cells) were cultured in DMEM medium supplemented with 10% of FCS, 2 mM of L-glutamine, 1 mM of sodium pyruvate, 50 units/ml of penicillin and 50 μg/ml of streptomycin, at a temperature of 37° C. and in a humid atmosphere with 5% of CO2.
This was carried out in 96-well microplates under the same conditions as those given above in example 17.
In this example, the effects of the following products, alone or in combination, at various concentrations, were studied on MCF-7ras cell proliferation after incubation for 72 hours:
The percentage inhibition I was calculated as described above in example 17.
The effect of synergy between the dextrans DMCB7 or LS4 DMCB or LS17 and NaPA was calculated using the following isobolic equation (T. Mosmann, J. Immunol. Methods, 1983, 65, 55-63): […]
in which Ac and Bc correspond, respectively, to the concentration of dextran derivative and NaPA used in combination, and Ae and Be correspond to the concentration of each of these two compounds used alone and inducing the same effect; D is the combination index and Dm is the mean combination index. When D or Dm is less than 1, then the combination of the two products has a synergistic effect.
When the concentration of dextran derivative used alone (Ae), making it possible to obtain a percentage inhibition close to that which is obtained when the dextran derivative is used in combination with NaPA, is very high and such that it cannot be determined precisely, then the ratio Ac/Ae tends toward zero and, consequently, D=Bc/Be. Such concentrations of dextran derivatives (Ae) have been indicated in tables II, III and IV below as simply being greater than the concentration given for Ac.
Each experiment was repeated 3 times so as to be able to calculate the statistical significance (P) of the combination index (D or Dm) compared to the additive combination index for the effects (D=1) using the Student's t test.

[5] = test system: 1205LU human melanoma cells; assay: Antitumor effect in vivo, 1205LU human melanoma in athymic mice
Protocol: A group of 14 female athymic mice were subcutaneously inoculated, according to the protocol described above in example 17, with 1205LU human melanoma cells, in a proportion of 10^6 cells per animal.
For a period of five weeks, and at a rate of twice a week, a first group of 4 mice were given an injection of 100 μl of sodium chloride so as to serve as a control group, a second group of 4 mice were given an injection of LS17-NaPAC at a dose of 60 mg/kg/100 μl, and a third group of 6 mice were given an injection of NaPA at a dose of 6.9 mg/kg/100 μl.
The volume of each tumor was measured before the first injection and then once a week for the five weeks of treatment. It was calculated according to the equation defined above in example 17.
Furthermore, at the end of treatment, the mice were sacrificed so as to be able to determine the mass of each of the tumors. […] The treatment with NaPA alone at a dose of 6.9 mg/kg therefore appears to be nonsignificant, contrary to that with LS17-NaPAC at an equivalent dose of 60 mg/kg (p<0.005).

## O=C([O-])Cc1ccccc1.[Na+] [NaPA, sodium phenylacetate]
HUVEC cells
  inhibitory effect on HUVEC cell proliferation: do not appear to exhibit an inhibitory effect
MCF-7 cells [1]; Homo sapiens, MCF7, 72 h, read-out: IC50 (minimum dose causing arrest of proliferation of 50% of cells)
  IC50: 5 mM
MCF-7 cells [1]; concentrations greater than 30 mM, reflects cytotoxic effect
  inhibition of cell proliferation: exceeds 100%
MCF-7 cells [1]; same inhibition as maximum effect of NaPAC MF6
  concentration of NaPA alone giving this inhibition: 50 mM
MCF-7ras cells [2]
  distribution of cells in the phases of the cell cycle: blocking of the cells in the G0/G1 phase
MCF-7 cells [3]; concentrations less than 1 mM, MTT
  effect on MCF-7 cells: does not appear to have a significant effect
MCF-7 cells [3]; same inhibition (40 to 50%) as the combination
  concentration of free NaPA giving this same inhibition: 5 mM
MCF-7ras tumors
  inhibition of tumor cell growth: 59%
MCF-7ras cells [4]; NaPA alone at 30 and 40 mM, 72 h
  inhibition of MCF-7ras cell proliferation: 70%
MCF-7ras cells [4]; same effect as DMCB7 0.05 mM + NaPA 5 mM (10% inhibition)
  NaPA Bc: 1 mM
MCF-7ras cells [4]; same effect as DMCB7 0.3 mM + NaPA 5 mM (20% inhibition)
  NaPA Bc: 5 mM
MCF-7ras cells [4]; same effect as DMCB7 1 mM + NaPA 5 mM (38% inhibition)
  NaPA Bc: 10.7 mM
MCF-7ras cells [4]; same effect as DMCB7 1.27 mM + NaPA 5 mM (42% inhibition)
  NaPA Bc: 12 mM
MCF-7ras cells [4]; same effect as DMCB7 1.7 mM + NaPA 5 mM (45% inhibition)
  NaPA Bc: 13 mM
MCF-7ras cells [4]; same effect as DMCB7 2 mM + NaPA 5 mM (50% inhibition)
  NaPA Bc: 20 mM
MCF-7ras cells [4]; same effect as DMCB7 5 mM + NaPA 5 mM (60% inhibition)
  NaPA Bc: 29 mM
MCF-7ras cells [4]; same effect as DMCB7 7 mM + NaPA 5 mM (70% inhibition)
  NaPA Bc: 36 mM
MCF-7ras cells [4]; same effect as LS4 3.7 mM + NaPA 0.75 mM (51.4% inhibition)
  NaPA Bc: 22 mM
MCF-7ras cells [4]; same effect as LS4 7.4 mM + NaPA 1.5 mM (54.8% inhibition)
  NaPA Bc: 23 mM
MCF-7ras cells [4]; same effect as LS4 14.8 mM + NaPA 3 mM (55% inhibition)
  NaPA Bc: 23.3 mM
MCF-7ras cells [4]; same effect as LS4 18.5 mM + NaPA 4 mM (60.2% inhibition)
  NaPA Bc: 29.3 mM
MCF-7ras cells [4]; same effect as LS17 1.53 mM + NaPA 0.5 mM (0% inhibition)
  NaPA Be: 0 mM
MCF-7ras cells [4]; same effect as LS17 3 mM + NaPA 1 mM (16% inhibition)
  NaPA Be: 0.76 mM
MCF-7ras cells [4]; same effect as LS17 6 mM + NaPA 2 mM (17.3% inhibition)
  NaPA Be: 0.83 mM
MCF-7ras cells [4]; same effect as LS17 12 mM + NaPA 4 mM (17.3% inhibition)
  NaPA Be: 0.83 mM
[5]; NaPA 6.9 mg/kg, end of treatment
  mass of the tumors vs untreated mice: no significant difference
[5]; NaPA 6.9 mg/kg/100 μl, twice a week, five weeks
  effect on tumor growth (tumor volume): does not appear to have a significant effect
